Source: patent US20230235374A1, “High Throughput Assays for Detecting Translation Readthrough Inducers” (The Trustees of the University of Pennsylvania, priority 2021, published 2023)

Assays:
[1] = system: RNA of Stop-POST5 and 80S.IRES complexes; assay: LASER-seq mutational profiling of AzAt photoincorporation sites; format: binding, shrimp (Artemia salina); details: 300 μM AzAt
Procedure: RNA-Seq procedures employed closely follow those published (Zinshteyn et al., Nucleic Acids Res, 47, 43-55 (2019); McClary et al., Cell Chem Biol, 24, 605-613 e605 (2017)) except as noted.
Library preparation. RNA-seq libraries were prepared for PAL, PRE, UV, and NUL samples, as defined in Results, of Stop-POST5 and 80S.IRES complexes, using published procedures (Zinshteyn et al., Nucleic Acids Res, 47, 43-55 (2019); McClary et al., Cell Chem Biol, 24, 605-613 e605 (2017)) with the slight modifications that a 12% 0.13 M Tris/45 mM Borate/2.5 mM EDTA (pH 7.6))—Urea PAGE gel replaced a 10% PAGE gel and the selected RNA fragment size was 40-70 bp rather than 60-70 bp. In brief, RNA was extracted and randomly fragmentated by ZnCl2 (Sigma). After separation on the TBE-Urea PAGE gel, RNA fragments, visualized by ethidium bromide staining (used for all RNA gels) were sliced and extracted from the gel by crushing the gel and vigorously shaking (1400 rpm) at 70° C. in 400 μL of water for 15 min. The 3′ ends were dephosphorylated by T4 Polynucleotide Kinase (New England Biolab). The miRNA cloning linker 2 (5′App/[…]/3′ddC (SEQ ID NO: 11), Integrated DNA Technologies) was used as the universal 3′ linker and pre-adenylated using the 5′ DNA Adenylation Kit (New England Biolab) with the provided protocol. Reverse transcription, self-circularization, and PCR amplification were performed essentially the same as previously described (McClary et al., Cell Chem Biol, 24, 605-613 e605 (2017)). Library sequencing was performed on Illumina NextSeq with single-end mode for up to 75 bp read length.
Data processing. Sequencing reads were processed by Cutadapt 2.10 (cutadapt.readthedocs.io/en/stable/) to remove 3′ end linkers and then inputted into Shapemapper2 (Busan et al., RNA, 24(2):143-148 (2018)) to count the mutations and effective sequencing reads, using the STAR Aligner mode (Dobin et al., STAR: ultrafast universal RNA-seq aligner. Bioinformatics. 29:15-21 (2013)). The mutation rate of each nucleotide was calculated by dividing the number of the reads containing the mutations by the total number of reads, outputted as N.
For the PAL sample, the mutation rate fold change was calculated by dividing the mutation rate of the PAL sample by the mutation rate of the PRE sample. The average mutation count was calculated by averaging the number of mutations of the PAL and PRE samples. MA plots (FIG. 3A, FIG. 3B, FIG. 3C and FIG. 3D) were charted by plotting the mutation rate fold change of each nucleotide as a function of the average mutation count of each nucleotide. To determine possibly significant sites of AzAt labeling, the dataset was first screened for points that meet the criteria of a mutation rate fold change ≥1.5 and an average mutation count ≥100. Points meeting these criteria were further screened with Z-factor >0 and p-value <0.05 to determine statistical significance. The Z-factor (z) was calculated using the following equation
For each complex LASER-Seq was carried out on four types of samples, denoted PAL, PRE, UV, and NUL. PAL samples were prepared by photoaffinity labeling of complexes with 300 μM AzAt, a concentration close to saturating for photoincorporation (FIG. 2C). PRE samples were prepared using separately prephotolyzed AzAt that was re-irradiated in the presence of complexes. UV and NUL samples were prepared in the absence of AzAt by either subjecting complexes to uv irradiation (UV) or just analyzing complexes directly (NUL).
The sites of modification arising exclusively via nitrene formation on irradiation of AzAt was first identified by the mutation rate fold change of PAL vs. PRE samples, a procedure which corrects for mutation rates arising from noncovalent binding, or covalent photoincorporation of pre-photolyzed AzAt, or uv-induced mutations not related to AzAt (Table 4). The results obtained for the ≥6,006 nucleotides present in these two complexes are presented in FIG. 3A, FIG. 3B, FIG. 3C and FIG. 3D. […]

eRF3 = molecular target: T1, eRF3 (Saccharomyces cerevisiae, UniProt P05453); assay: [3H]-AzAt photoaffinity labeling of eRF3; format: binding; details: near linear response to AzAt concentration
T1 construct: amino acid residues (166-685) of the eRF3 open reading frame; made in house; host or cells: E. coli BL21(DE3) CodonPlus
Procedure: Photoaffinity labeling with [^3H]-AzAt. Samples in Buffer 4, typically 20 μL, were incubated in the dark (20 min for Stop-POST5 and 80S-IRES complexes, 2 min for release factors) with various concentrations of [^3H]-AzAt at 37° C., transferred to a UV-transparent cuvette which was covered with parafilm to prevent evaporation, and irradiated in a Rayonet photochemical reactor equipped with 300 nm UV lamps for 5 min at room temperature. This was followed by quenching with 2 mM DTT at 37° C. for 5 min under ambient light. The irradiation time gave complete photolysis of the phenyl azide moiety in AzAt. Photolysis was also complete at 5 min in the presence of 1 mM ataluren, ruling out internal filtering effects.
Photoaffinity labeling of release factors. Solutions containing eRF1 (10 μM), eRF3 (20 μM) and 1 mM GMPPMP were pre-incubated at 37° C. for 2 min to form the ternary complex prior to photolabeling with [^3H]-AzAt. After quenching, reaction mixtures were loaded onto a 4-15% mini protean SDS-PAGE gel for protein separation and isolation. Gel slices containing eRF1 or eRF3, as shown by Coomassie Blue R250 staining, were crushed and the radioactivity was extracted in extraction buffer (50 mM Tris-HCl, 150 mM NaCl, and 0.1 mM EDTA; pH 7.5) by vigorously shaking at 70° C. for 30 min. The data fitting was performed using the software Prism. […]

T1 sequence (P05453 166-685): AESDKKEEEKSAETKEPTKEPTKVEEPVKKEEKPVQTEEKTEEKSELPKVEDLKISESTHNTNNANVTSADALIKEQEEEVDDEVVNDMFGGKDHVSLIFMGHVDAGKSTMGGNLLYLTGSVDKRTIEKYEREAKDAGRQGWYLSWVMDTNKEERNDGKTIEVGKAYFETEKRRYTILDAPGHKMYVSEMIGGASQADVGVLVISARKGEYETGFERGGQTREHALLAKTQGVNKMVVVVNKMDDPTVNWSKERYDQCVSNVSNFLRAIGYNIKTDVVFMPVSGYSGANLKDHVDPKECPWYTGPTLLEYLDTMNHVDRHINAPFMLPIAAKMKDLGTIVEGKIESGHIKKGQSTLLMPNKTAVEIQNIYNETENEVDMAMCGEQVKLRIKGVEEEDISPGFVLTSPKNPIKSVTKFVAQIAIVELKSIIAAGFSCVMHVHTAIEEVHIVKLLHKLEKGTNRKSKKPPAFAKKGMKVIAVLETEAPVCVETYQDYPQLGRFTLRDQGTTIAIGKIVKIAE

[N-]=[N+]=Nc1ccc(-c2nc(-c3cccc(C(=O)O)c3)no2)cc1 [AzAt]
mutation rate change, 26S-A1437 [1]: 1.4 fold | mutation rate change, 26S-A1438 [1]: 1.3 fold | mutation rate change, IRES-A142 [1]: 1.4 fold | mutation rate change, IRES-G186 [1]: 2.0 fold | mutation rate change, IRES-U177 [1]: 2.4 fold | mutation rate fold-increase PAL vs. PRE, 18S-A1195 ([1]; in both complexes): ~9 fold | nature of photo-incorporation into eRF3 (eRF3): nonspecific binding
